For 61 compounds, IC50 results are on record in patent US20060252807A1, “Novel ortho-terphenyl inhibitors of p38 kinase and methods of treating inflammatory disorders” (Kalypsys, Inc., priority 2005, published 2006).

SMILES strings stand for the structures.

Usually IC50 stands for the concentration needed to halve the response being measured. Low values mean greater potency, high ones weaker potency.

In the first assay the target is T1, active p38 alpha enzyme (Upstate Biotechnology) (Homo sapiens, UniProt Q16539).
T1 construct: purchased Upstate Biotechnology
T1 sequence (Q16539 whole entry): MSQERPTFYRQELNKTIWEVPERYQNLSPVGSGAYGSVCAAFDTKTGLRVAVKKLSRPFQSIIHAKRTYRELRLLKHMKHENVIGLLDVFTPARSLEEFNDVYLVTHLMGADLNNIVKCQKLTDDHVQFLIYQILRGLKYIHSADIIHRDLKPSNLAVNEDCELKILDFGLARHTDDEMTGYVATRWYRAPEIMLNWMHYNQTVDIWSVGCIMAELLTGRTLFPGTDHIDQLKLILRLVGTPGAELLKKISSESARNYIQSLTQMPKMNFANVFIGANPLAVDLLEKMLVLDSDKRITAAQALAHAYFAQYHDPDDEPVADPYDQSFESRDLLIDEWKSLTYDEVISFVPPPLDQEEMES
Put plainly: p38α biochemical assay (ATP turnover, luminescent detection, Cambrex PKlight). To be noted: p38α biochemical assay, Table 1 Biological Activity. The gist of the method: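 Compounds in DMSO are added to active p38 alpha with MapkapK2 whole protein and ATP at 1.4 uM final. Reactions then run for 2 hours at 30C. A luminescent reagent is added last to quantify total ATP consumed.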
On to `CC(C)NC(=O)c1csc(-c2c(-c3ccc(F)cc3)noc2CNC(=O)c2cc3cc(Cl)ccc3o2)n1` [Example 739], for which the IC50 was above 1000 nM.
Same read-out and setting: as for `COc1ccc([N+](=O)[O-])c(C(=O)NCc2onc(-c3ccc(F)cc3)c2-c2nc(C(=O)NC(C)C)cs2)c1` [Example 740], the figure is above 1000 nM; as for `COc1cc(C(=O)NCc2onc(-c3ccc(F)cc3)c2-c2nc(C(=O)NC(C)C)cs2)cc(OC)c1O` [Example 741], above 1000 nM; as for `CC(C)NC(=O)c1csc(-c2c(-c3ccc(F)cc3)noc2CNC(=O)c2ccccc2-c2ccccc2)n1` [Example 742], above 1000 nM.
`CC(C)NC(=O)c1csc(-c2c(-c3ccc(F)cc3)noc2CNC(=O)c2cccc(Br)c2)n1` [Example 743] came in with an IC50 above 1000 nM.
Turning to `CC(C)NC(=O)c1csc(-c2c(-c3ccc(F)cc3)noc2CNC(=O)c2ccc(Br)cc2)n1` [Example 744], the IC50 was above 1000 nM.
`CC(C)NC(=O)c1csc(-c2c(-c3ccc(F)cc3)noc2CNC(=O)c2cccc(Cl)c2[N+](=O)[O-])n1` [Example 745] showed an IC50 above 1000 nM.
For the compound `CC(C)NC(=O)c1csc(-c2c(-c3ccc(F)cc3)noc2CNC(=O)c2cc([N+](=O)[O-])ccc2Cl)n1` [Example 746], the IC50 is above 1000 nM.
On to `CC(C)NC(=O)c1csc(-c2c(-c3ccc(F)cc3)noc2CNC(=O)c2ccc([N+](=O)[O-])cc2Cl)n1` [Example 747], for which the IC50 was at most 1000 nM.
In turn, `CC(C)NC(=O)c1csc(-c2c(-c3ccc(F)cc3)noc2CNC(=O)c2ccc(Cl)cc2[N+](=O)[O-])n1` [Example 748] came in with an IC50 above 1000 nM.
The compound `CC(C)NC(=O)c1csc(-c2c(-c3ccc(F)cc3)noc2CNC(=O)c2ccc(Cl)c([N+](=O)[O-])c2)n1` [Example 749] gave an IC50 above 1000 nM.
As for `CC(C)NC(=O)c1csc(-c2c(-c3ccc(F)cc3)noc2CNC(=O)c2cc(Cl)ccc2[N+](=O)[O-])n1` [Example 750], the IC50 was above 1000 nM.
`CC(C)NC(=O)c1csc(-c2c(-c3ccc(F)cc3)noc2CNC(=O)c2cccc(Br)n2)n1` [Example 751] had an IC50 above 1000 nM.
Same read-out and setting: then `CC(C)NC(=O)c1csc(-c2c(-c3ccc(F)cc3)noc2CNC(=O)c2cncc(Br)c2)n1` [Example 752], with above 1000 nM.
In turn, `CC(C)NC(=O)c1csc(-c2c(-c3ccc(F)cc3)noc2CNC(=O)c2cc(F)c(F)cc2[N+](=O)[O-])n1` [Example 753] showed an IC50 above 1000 nM.
In turn, `CC(C)NC(=O)c1csc(-c2c(-c3ccc(F)cc3)noc2CNC(=O)Cc2ccc(C(F)(F)F)cc2)n1` [Example 754] registered an IC50 above 1000 nM.
In turn, `CC(C)Cc1ccc(C(C)C(=O)NCc2onc(-c3ccc(F)cc3)c2-c2nc(C(=O)NC(C)C)cs2)cc1` (stereo not shown) [Example 755] gave an IC50 above 1000 nM.
With `CC(C)NC(=O)c1csc(-c2c(-c3ccc(F)cc3)noc2CNC(=O)c2cc(Cl)c(O)c(Cl)c2)n1` [Example 756], the IC50 is above 1000 nM.
With `CC(C)NC(=O)c1csc(-c2c(-c3ccc(F)cc3)noc2CNC(=O)c2c(F)c(F)c(F)c(F)c2F)n1` [Example 757], the IC50 is above 1000 nM.
Same read-out and setting: as for `COc1cc(OC)c(C(=O)NCc2onc(-c3ccc(F)cc3)c2-c2nc(C(=O)NC(C)C)cs2)c(OC)c1` [Example 758], the figure is above 1000 nM; as for `COc1cc(OC)c(C(=O)NCc2onc(-c3ccc(F)cc3)c2-c2nc(C(=O)NC(C)C)cs2)cc1OC` [Example 759], above 1000 nM.
`COc1cc(C(=O)NCc2onc(-c3ccc(F)cc3)c2-c2nc(C(=O)NC(C)C)cs2)cc(OC)c1OC` [Example 760] gave an IC50 above 1000 nM.
In turn, `COc1ccc(C(=O)NCc2onc(-c3ccc(F)cc3)c2-c2nc(C(=O)NC(C)C)cs2)c(OC)c1OC` [Example 761] returned an IC50 above 1000 nM.
For the compound `CC(C)NC(=O)c1csc(-c2c(-c3ccc(F)cc3)noc2CNC(=O)c2ccccc2Cc2ccccc2)n1` [Example 762], the IC50 is above 1000 nM.
Turning to `CC(C)NC(=O)c1csc(-c2c(-c3ccc(F)cc3)noc2CNC(=O)c2cccc(Oc3ccccc3)c2)n1` [Example 763], the half-inhibitory concentration (IC50) was above 1000 nM.
Take `CC(C)NC(=O)c1csc(-c2c(-c3ccc(F)cc3)noc2CNC(=O)c2ccccc2Oc2ccccc2)n1` [Example 764]: the IC50 was above 1000 nM.
`CC(C)NC(=O)c1csc(-c2c(-c3ccc(F)cc3)noc2CNC(=O)c2ccc(Oc3ccccc3)cc2)n1` [Example 765] came in with an IC50 above 1000 nM.
The compound `CC(C)NC(=O)c1csc(-c2c(-c3ccc(F)cc3)noc2CNC(=O)c2ccc(-c3ccc(O)cc3)cc2)n1` [Example 766] displayed an IC50 above 1000 nM.
Regarding `Cc1cc(C(=O)NCc2onc(-c3ccc(F)cc3)c2-c2nc(C(=O)NC(C)C)cs2)ccc1Br` [Example 767], the IC50 was above 1000 nM.
The compound `Cc1ccc(C(=O)NCc2onc(-c3ccc(F)cc3)c2-c2nc(C(=O)NC(C)C)cs2)cc1Br` [Example 768] had an IC50 above 1000 nM.
Still for that read-out and setting: as for `CC(C)NC(=O)c1csc(-c2c(-c3ccc(F)cc3)noc2CNC(=O)Cc2ccc(Br)cc2)n1` [Example 769], the figure is above 1000 nM; as for `CC(C)NC(=O)c1csc(-c2c(-c3ccc(F)cc3)noc2CNC(=O)C2CCCN2C(=O)OC(C)(C)C)n1` (stereo not shown) [Example 770], above 1000 nM; as for `CC(C)NC(=O)c1csc(-c2c(-c3ccc(F)cc3)noc2CNC(=O)/C=C/c2ccccc2C(F)(F)F)n1` [Example 771], above 1000 nM.
Compound `CCOc1ccc2ccccc2c1C(=O)NCc1onc(-c2ccc(F)cc2)c1-c1nc(C(=O)NC(C)C)cs1` [Example 772] showed an IC50 above 1000 nM.
The compound `CC(C)NC(=O)c1csc(-c2c(-c3ccc(F)cc3)noc2CNC(=O)C(NC(=O)OC(C)(C)C)C(C)C)n1` (stereo not shown) [Example 773] had a 50% inhibitory concentration (IC50) above 1000 nM.
`CC(C)NC(=O)c1csc(-c2c(-c3ccc(F)cc3)noc2CNC(=O)C(NC(=O)OC(C)(C)C)C(C)C)n1` (stereo not shown) [Example 774] gave an IC50 above 1000 nM.
Same read-out and setting: as for `CC(C)NC(=O)c1csc(-c2c(-c3ccc(F)cc3)noc2CNC(=O)CCc2cccc(C(F)(F)F)c2)n1` [Example 775], the figure is above 1000 nM.
Compound `CC1=NN(c2ccc(C(=O)NCc3onc(-c4ccc(F)cc4)c3-c3nc(C(=O)NC(C)C)cs3)cc2)C(=O)C1` [Example 776] showed an IC50 above 1000 nM.
Compound `Cc1nc(Br)sc1C(=O)NCc1onc(-c2ccc(F)cc2)c1-c1nc(C(=O)NC(C)C)cs1` [Example 777] yielded an IC50 above 1000 nM.
On to `CC(C)NC(=O)c1csc(-c2c(-c3ccc(F)cc3)noc2CNC(=O)c2c3ccccc3cc3ccccc23)n1` [Example 778], for which the IC50 was above 1000 nM.
`CC(C)NC(=O)c1csc(-c2c(-c3ccc(F)cc3)noc2CNC(=O)c2cc(C(C)C)cc(C(C)C)c2O)n1` [Example 779] showed an IC50 above 1000 nM.
Still for that read-out and setting: as for `CC(=O)NC(Cc1ccc(O)cc1)C(=O)NCc1onc(-c2ccc(F)cc2)c1-c1nc(C(=O)NC(C)C)cs1` (stereo not shown) [Example 780], the figure is above 1000 nM; as for `CC(C)NC(=O)c1csc(-c2c(-c3ccc(F)cc3)noc2CNC(=O)c2c(Cl)cc(Cl)cc2Cl)n1` [Example 781], above 1000 nM.
As for `COc1cc(C(=O)NCc2onc(-c3ccc(F)cc3)c2-c2nc(C(=O)NC(C)C)cs2)c([N+](=O)[O-])cc1OC` [Example 782], the 50% inhibitory concentration (IC50) is above 1000 nM.
In turn, `CC(C)NC(=O)c1csc(-c2c(-c3ccc(F)cc3)noc2CNC(=O)c2ccc(OCc3ccccc3)cc2)n1` [Example 783] gave an IC50 above 1000 nM.
`CC(C)NC(=O)c1csc(-c2c(-c3ccc(F)cc3)noc2CNC(=O)CCc2ccccc2Br)n1` [Example 784] had an IC50 above 1000 nM.
`CC(C)NC(=O)c1csc(-c2c(-c3ccc(F)cc3)noc2CNC(=O)CCc2cccc(Br)c2)n1` [Example 785] registered an IC50 above 1000 nM.
As to `CC(C)NC(=O)c1csc(-c2c(-c3ccc(F)cc3)noc2CNC(=O)C2CCCCN2C(=O)OC(C)(C)C)n1` (stereo not shown) [Example 786], the IC50 is above 1000 nM.
`CC(C)NC(=O)c1csc(-c2c(-c3ccc(F)cc3)noc2CNC(=O)c2ccc(Oc3cccc(O)c3)cc2)n1` [Example 787] yielded an IC50 above 1000 nM.
Take `COc1ccc2cc(C(C)C(=O)NCc3onc(-c4ccc(F)cc4)c3-c3nc(C(=O)NC(C)C)cs3)ccc2c1` (stereo not shown) [Example 788]: the IC50 was above 1000 nM.
For the compound `CC(C)NC(=O)c1csc(-c2c(-c3ccc(F)cc3)noc2CNC(=O)C2CN(C(=O)OC(C)(C)C)CCN2)n1` (stereo not shown) [Example 789], the IC50 was above 1000 nM.
Same read-out and setting: as for `CC(C)NC(=O)c1csc(-c2c(-c3ccc(F)cc3)noc2CNC(=O)C2CN(C(=O)OC(C)(C)C)CCN2)n1` (stereo not shown) [Example 790], the figure is above 1000 nM.
As to `COc1ccc(Br)c(C(=O)NCc2onc(-c3ccc(F)cc3)c2-c2nc(C(=O)NC(C)C)cs2)c1` [Example 791], the IC50 is above 1000 nM.
Take `CC(C)NC(=O)c1csc(-c2c(-c3ccc(F)cc3)noc2CNC(=O)C2CC(O)CN2C(=O)OC(C)(C)C)n1` (stereo not shown) [Example 792]: the IC50 was above 1000 nM.
In turn, `CC(C)NC(=O)c1csc(-c2c(-c3ccc(F)cc3)noc2CNC(=O)C(C(C)C)N(C)C(=O)OC(C)(C)C)n1` (stereo not shown) [Example 793] had an IC50 above 1000 nM.
The compound `CC(C)NC(=O)c1csc(-c2c(-c3ccc(F)cc3)noc2CNC(=O)c2ccc(C(F)(F)F)cc2[N+](=O)[O-])n1` [Example 794] returned an IC50 above 1000 nM.
Compound `CC(C)NC(=O)c1csc(-c2c(-c3ccc(F)cc3)noc2CNC(=O)c2cc(Br)ccc2Cl)n1` [Example 795] displayed an IC50 above 1000 nM.
On to `CC(C)NC(=O)c1csc(-c2c(-c3ccc(F)cc3)noc2CNC(=O)c2ccc(Cl)c(Br)c2)n1` [Example 796], for which the concentration for half-maximal inhibition (IC50) is above 1000 nM.

The assay is the same for the next values; noted with them: p38α kinase; Table 1 Biological Activity.
The compound `CC(C)NC(=O)c1csc(-c2c(-c3ccc(F)cc3)noc2CNC(=O)c2ccccc2C(=O)c2ccc(O)cc2)n1` [Example 797] returned an IC50 above 1000 nM.
`CC(C)NC(=O)c1csc(-c2c(-c3ccc(F)cc3)noc2CNC(=O)c2ccccc2C(=O)c2ccc(F)cc2)n1` [Example 798] came in with an IC50 above 1000 nM.
With `CC(C)NC(=O)c1csc(-c2c(-c3ccc(F)cc3)noc2CNC(=O)C(C)c2ccc(-c3ccccc3)c(F)c2)n1` (stereo not shown) [Example 799], the IC50 was above 1000 nM.
